Data from patent US9040529B2 (Vichem Chemie Kutató Kft., priority 2009, dated 2015).
Counter-ions that a name gives are not always drawn.

Biological target: T1, human CDK9/CyclinT kinase complex (Homo sapiens, UniProt P50750)
T1 construct: purchased Proqinase 0371-0345-1
Experiment: In vitro CDK9/CyclinT assay (IMAP fluorescence polarization kinase assay)
Format: biochemical
Details: for IC50: 5 nM CDK9/CyclinT, 400 nM TAMRA-Rbtide, 12 μM ATP, 1 hour at room temperature, read-out: CDK9 inhibitory range
Protocol: In Vitro CDK9/CyclinT Assay
The activity of the compounds described in the present invention can be determined by the following kinase assay, which measures the phosphorylation of a fluorescently-labeled peptide by human CDK9/CyclinT kinase complex by fluorescent polarization using a commercially available IMAP Screening Express Assay Kit (Molecular devices).
CDK9 kinase assays were performed in low protein binding 384-well plates (Corning 3676). Test compounds were diluted in 100% DMSO to 5 mM stock concentration, then further dilutions were made in H2O or 100% DMSO to desirable concentrations.
Each reaction consisted of 5 nM enzyme: CDK9/CyclinT (Proqinase cat#0371-0345-1), 400 nM TAMRA-Rbtide (synthetic 15-mer peptide derived from human retinoblastoma tumor suppressor protein labelled with TAMRA dye, Genecust Europe), 12 μM ATP (=Kmapp, Sigma-Aldrich) and kinase buffer: 20 mM MOPS pH 7 (Sigma-Aldrich), 1 mM DTT (Sigma-Aldrich), 10 mM MgCl2 (Sigma-Aldrich), 0.01% Tween 20 (Sigma-Aldrich).
For each reaction, 4 or 6 μl containing TAMRA-Rbtide, ATP and kianse buffer were combined with 2 μl diluted compound in H2O or 0.028 μl compound in 100% DMSO. The kinase reaction was started by the addition of 2 μl diluted enzyme. The reaction was allowed to run for 1 hours at room temperature. The reaction was stopped by adding 15 μl IMAP beads (1:400 beads in progressive (100% buffer A) 1× buffer). After an additional 1 hours, fluorescent polarization (Ex: 550-10 nm, Em: 590-10 nm, Dich: 561 nm) was measured using an Analyst GT (Molecular devices).

T1 sequence (P50750 whole entry): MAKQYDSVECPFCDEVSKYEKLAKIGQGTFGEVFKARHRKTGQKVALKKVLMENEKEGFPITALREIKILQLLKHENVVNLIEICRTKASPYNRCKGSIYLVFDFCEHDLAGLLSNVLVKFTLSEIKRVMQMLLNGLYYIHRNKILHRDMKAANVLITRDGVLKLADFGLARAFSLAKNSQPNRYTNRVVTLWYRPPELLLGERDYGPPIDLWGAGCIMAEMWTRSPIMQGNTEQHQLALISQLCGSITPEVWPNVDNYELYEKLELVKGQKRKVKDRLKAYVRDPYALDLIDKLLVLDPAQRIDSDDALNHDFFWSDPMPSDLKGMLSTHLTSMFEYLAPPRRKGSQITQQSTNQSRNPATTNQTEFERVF
T1 sequence (O60563 whole entry partner): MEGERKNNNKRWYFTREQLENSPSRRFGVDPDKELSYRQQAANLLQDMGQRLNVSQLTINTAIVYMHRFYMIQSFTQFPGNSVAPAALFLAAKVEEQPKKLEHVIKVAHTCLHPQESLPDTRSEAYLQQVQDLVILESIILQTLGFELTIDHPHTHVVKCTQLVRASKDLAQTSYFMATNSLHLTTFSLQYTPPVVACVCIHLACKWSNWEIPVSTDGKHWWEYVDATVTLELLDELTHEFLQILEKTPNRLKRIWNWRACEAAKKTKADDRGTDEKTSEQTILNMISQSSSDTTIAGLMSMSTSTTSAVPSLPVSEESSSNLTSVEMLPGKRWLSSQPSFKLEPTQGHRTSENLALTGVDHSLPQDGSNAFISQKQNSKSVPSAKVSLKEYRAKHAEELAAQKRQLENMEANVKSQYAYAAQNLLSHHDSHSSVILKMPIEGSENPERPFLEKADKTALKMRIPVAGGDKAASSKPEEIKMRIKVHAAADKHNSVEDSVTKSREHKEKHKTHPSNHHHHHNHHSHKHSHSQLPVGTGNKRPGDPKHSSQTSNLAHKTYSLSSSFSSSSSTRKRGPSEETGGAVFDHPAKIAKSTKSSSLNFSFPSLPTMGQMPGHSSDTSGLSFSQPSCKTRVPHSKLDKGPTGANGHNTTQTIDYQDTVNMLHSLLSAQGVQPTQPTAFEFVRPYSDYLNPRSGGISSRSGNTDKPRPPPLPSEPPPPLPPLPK

Row | SMILES | IC50 [nM] | CDK9 inhibitory effect
1 | CS(=O)(=O)NCc1cccc(Nc2cc(-c3cn[nH]c3)ncn2)c1 [Example 32, N-{3-[6-(1H-Pyrazol-4-yl)-pyrimidin-4-ylamino]-benzyl}-methanesulfonamide] | < 1000 | 
2 | Clc1cc(Nc2cccc(CNc3nc4ccccc4[nH]3)c2)ncn1 [Example 59, (1H-Benzoimidazol-2-yl)-[3-(6-chloro-pyrimidin-4-ylamino)-benzyl]-amine] | > 10000 | 
3 | CC(C)COc1ccccc1-c1cc(Nc2ccc(CNS(C)(=O)=O)cc2)ncn1 [Example 51, N-{4-[6-(2-Isobutoxy-phenyl)-pyrimidin-4-ylamino]-benzyl}-methanesulfonamide] | < 1000 | 
4 | CS(=O)(=O)NCc1ccc(Nc2cc(-c3cccnc3)ncn2)cc1 [Example 52, N-[4-(6-Pyridin-3-yl-pyrimidin-4-ylamino)-benzyl]-methanesulfonamide] | < 10000 | 
5 | COc1ccccc1-c1cc(Nc2cccc(CNC(=O)c3ccc(F)cc3)c2)ncn1 [Example 84, 4-Fluoro-N-{3-[6-(2-methoxy-phenyl)-pyrimidin-4-ylamino]-benzyl}-benzamide] | < 1000 | 
6 | CC(C)Oc1cc(F)ccc1-c1cc(Nc2ccc(Cn3cnc4ccccc43)cc2)ncn1 [Example 88, (4-Benzoimidazol-1-ylmethyl-phenyl)-[6-(4-fluoro-2-isopropoxy-phenyl)-pyrimidin-4-yl]-amine] | < 1000 | 
7 | Oc1cccc(-c2cc(Nc3cccc(Cn4cnc5ccccc54)c3)ncn2)c1 [Example 83, 3-[6-(3-Benzoimidazol-1-ylmethyl-phenylamino)-pyrimidin-4-yl]-phenol] | < 10000 | 
8 | COc1ccc(-c2cc(Nc3cccc(CNS(C)(=O)=O)c3)ncn2)c(OC)c1 [Example 24, N-{3-[6-(2,4-Dimethoxy-phenyl)-pyrimidin-4-ylamino]-benzyl}-methanesulfonamide] | < 1000 | 
9 | CS(=O)(=O)NCc1cccc(Nc2cc(-c3ccccc3OCc3ccc(F)cc3)ncn2)c1 [Example 10, N-(3-{6-[2-(4-Fluoro-benzyloxy)-phenyl]-pyrimidin-4-ylamino}-benzyl)-methanesulfonamide] | < 1000 | 
10 | CS(=O)(=O)NCc1ccc(Nc2cc(-c3cccc(N)c3)ncn2)cc1 [Example 46, N-{4-[6-(3-Amino-phenyl)-pyrimidin-4-ylamino]-benzyl}-methanesulfonamide hydrochloride] | < 10000 | 
11 | CC(C)Oc1cc(F)ccc1-c1cc(Nc2ccc(CNS(C)(=O)=O)cc2)ncn1 [Example 48, N-{4-[6-(4-Fluoro-2-isopropoxy-phenyl)-pyrimidin-4-ylamino]-benzyl}-methanesulfonamide] | < 100 | nanomolar or low nanomolar range
12 | CS(=O)(=O)NCc1ccc(Nc2cc(-c3ccccc3OCc3ccccc3)ncn2)cc1 [Example 35, N-{4-[6-(2-Benzyloxy-phenyl)-pyrimidin-4-ylamino]-benzyl}-methanesulfonamide] | < 100 | nanomolar or low nanomolar range
13 | COc1ccccc1-c1cc(Nc2cccc(Cn3c(CN4CCOCC4)nc4ccccc43)c2)ncn1 [Example 93, [6-(2-Methoxy-phenyl)-pyrimidin-4-yl]-[3-(2-morpholin-4-ylmethyl-benzoimidazol-1-ylmethyl)-phenyl]-amine] | < 10000 | 
14 | CS(=O)(=O)NCc1ccc(Nc2cc(-c3ccccc3F)ncn2)cc1 [Example 44, N-{4-[6-(2-Fluoro-phenyl)-pyrimidin-4-ylamino]-benzyl}-methanesulfonamide] | < 10000 | 
15 | CS(=O)(=O)NCc1ccc(Nc2cc(-c3ccc(O)cc3)ncn2)cc1 [Example 76, N-{4-[6-(4-Hydroxy-phenyl)-pyrimidin-4-ylamino]-benzyl}-methanesulfonamide] | < 1000 | 
16 | COc1ccccc1-c1cc(Nc2ccc(Cn3cnc4ccccc43)cc2)ncn1 [Example 87, (4-Benzoimidazol-1-ylmethyl-phenyl)-[6-(2-methoxy-phenyl)-pyrimidin-4-yl]-amine] | < 1000 | 
17 | COc1ccccc1-c1cc(Nc2cccc(Cn3cnc4ccccc43)c2)ncn1 [Example 64, (3-Benzoimidazol-1-ylmethyl-phenyl)-[6-(2-methoxy-phenyl)-pyrimidin-4-yl]-amine] | < 100 | nanomolar or low nanomolar range
18 | COc1ccccc1-c1cc(Nc2cccc(CNS(C)(=O)=O)c2)ncn1 [Example 6, N-{3-[6-(2-Methoxy-phenyl)-pyrimidin-4-ylamino]-benzyl}-methanesulfonamide] | < 100 | nanomolar or low nanomolar range
19 | CS(=O)(=O)NCc1ccc(Nc2cc(-c3ccccc3Oc3ccccc3)ncn2)cc1 [Example 40, N-{4-[6-(2-Phenoxy-phenyl)-pyrimidin-4-ylamino]-benzyl}-methanesulfonamide] | < 1000 | 
20 | COc1ccccc1-c1cc(Nc2cccc(CN3C(=O)c4ccccc4C3=O)c2)ncn1 [Example 68, 2-{3-[6-(2-Methoxy-phenyl)-pyrimidin-4-ylamino]-benzyl}-isoindole-1,3-dione] | < 100 | nanomolar or low nanomolar range
21 | Cc1ccccc1-c1cc(Nc2cccc(CNS(C)(=O)=O)c2)ncn1 [Example 11, N-[3-(6-o-Tolyl-pyrimidin-4-ylamino)-benzyl]-methanesulfonamide] | < 10000 | 
